Series [1] is described as follows: Tolerability / drug safety of oral Formula (IIa) in chronic WHV carrier woodchucks (Example 2). The format is in vivo, woodchuck (Marmota monax). The source says:
All woodchucks used in this study were born in captivity and infected at 3 days of age with the cWHV7P2a inoculum containing WHV strain 7-11 (WHV7). cWHV7P2a has the same biological and virological characteristics as the parent cWHV7P2 inoculum as both were derived from cWHV7P1. Chronically infected animals were confirmed positive for serum WHV DNA and WHV surface antigen (WHsAg) and had undetectable antibodies against WHsAg (anti-WHs) at approximately 1 year post-infection. Absence of liver tumors in woodchucks with low gamma-glutamyl transferase (GGT) was confirmed by ultrasonography. Chronic WHV carrier woodchucks were assigned and stratified by gender, body weight, and by pretreatment serum markers (WHV DNA and WHsAg loads and serum GGT and sorbitol-dehydrogenase (SDH) levels) into two groups (n=5 each). Woodchucks were treated daily, orally with either a low (15 mg/kg) or high dose (30 mg/kg) of Formula (IIa) for 12 weeks. For select assays, blood and liver samples from five age-matched chronic WHV carrier woodchucks were included for comparison of basal expression levels of immune response genes in untreated animals with pretreated levels in Formula (IIa) treated animals.
Various measurements (body weight, body temperature, clinical chemistry, and hematology) were obtained weekly to monthly throughout the study to monitor drug safety. Serum and hepatic WHV parameters, host immune response parameters, and drug safety parameters were compared to the values at pretreatment and between both dose groups using unpaired Student's t-test with equal variance. P values of <0.05 were considered statistically significant.

Series [2] concerns IFN-α, IFN-β, CXCL10, IL-6, ISG15, OAS1, RIG-I/NOD2 pathway transcripts. In words: Host immune response gene transcripts in blood and liver by real time PCR (Example 2). The series is classed as in vivo, woodchuck (Marmota monax). How it is done:
Immune responses associated with Formula (IIa) treatment were determined by changes in RNA transcript levels of IFN-α, IFN-β, IFN-γ induced protein 10 (IP-10 or CXCL10), interleukin 6 (IL-6), interferon-induced 17 kDa protein (ISG15), and 2′-5′-oligoadenylate synthetase 1 (OAS1) in blood and liver using PCR techniques. Whole blood was collected into PAXgene blood tubes (Qiagen, Redwood City, Calif.) at pretreatment (week-1 and T0), during treatment (weeks 6 and 12), and during follow-up (week 18) and stored at −70° C. until use. Total RNA was isolated with on-column DNase I digestion using the PAXgene Blood miRNA Kit (Qiagen). Total RNA was further isolated from liver biopsy samples collected at pretreatment (week-1), during treatment (weeks 6 and 12), and at the end of the study (week 20) using the RNeasy Mini Kit (Qiagen) with on-column DNase I digestion using the RNase-Free DNase Set (Qiagen). Following reverse transcription of mRNA with the High Capacity cDNA Reverse Transcription Kit (Applied Biosystems) using oligo(dT), complementary (c) DNA samples were amplified on a 7500 Real Time PCR System instrument (Applied Biosystems) using TaqMan Gene Expression Master Mix (Applied Biosystems) and woodchuck-specific primers and probes (Supplementary Table 1). Woodchuck 18S rRNA expression was used to normalize target gene expression. Transcription levels of target genes were calculated as a fold-change relative to pretreatment level at week-1 (liver) or at T0 (blood) using the formula 2^−ΔΔCt. Samples from a subset of woodchucks from the LD and HD groups were analyzed for expression changes of genes involved in the RIG-I/NOD2 pathway induced by Formula (IIa), including RIG-I, NOD2, transmembrane protein 173 (TMEM173 or STING), interferon regulatory factor 3 (IRF3), and IRF7.

The subject of series [3] is wild type HBV or resistant variants of HBV (polymerase M204V, M204I, L180M, L180M/M204V, N236T). In words: Antiviral assays in cells chronically infected with wild type HBV or resistant variants (Example 4). The series is classed as cell-based. Particulars: added to the cells daily for nine consecutive days. How it is done:
Antiviral assays were carried out in cells chronically infected with resistant variants of HBV. In order to gauge the efficacy of Formula (IIa) and the antiviral nucleoside analogs lamivudine (3TC) and adefovir dipivoxil (ADV) against the tested strains, the in vitro activity (EC50, μM) was determined using six different cell samples chronically infected with HBV. Each cell sample was infected with either wild type HBV or a resistant variant of HBV, wherein the resistant variants comprise mutations in the HBV polymerase (P) at the following amino acid positions: M204V, M204I, L180M, L180M/M204V, and N236T. In each assay, Formula (IIa), 3TC, or ADV was added to the cells daily for nine consecutive days.

Series [4] has as its system HBV-infected primary human hepatocytes. Nature of the series: In vitro studies using HBV-infected primary human hepatocytes. The series is classed as cell-based. The text has this: (§1) During viral infections, virus-derived nucleic acids (both DNA and RNA) are mainly sensed by certain pattern-recognition receptors such as RIG-1 and NOD2 which are located within the cytoplasm of cells, including hepatocytes. Binding of these viral sensor proteins to PAMP within the viral nucleic acids activates downstream signaling pathways which include the mitochondrial antiviral signaling protein (MAVS) leading to the induction of the IFN-regulatory factor-3 (IRF-3) and NF-κB dependent gene expression, and the subsequent production of type I and type III IFNs and inflammatory cytokines. Thus, sensing of viral nucleic acids is a crucial process to induce antiviral innate immune responses for limiting viral replication and for activation of adaptive immunity. For HBV it has been recently shown that RIG-1 sensing is mediated through recognition of the 5′-end ϵ region of the HBV pg RNA which leads to the induction of type III rather than type I IFNs in human primary hepatocytes in response to in vitro infection. In addition, activated RIG-1 is able to counter-act the interaction of the HBV polymerase protein with the HBV pgRNA in an IFN pathway independent manner resulting in suppressed viral replication. […]

The next series has as its system HCV, Norovirus and RSV. Nature of the series: In vitro and in vivo studies against RNA viruses.
Text: as §1

Setting [5] is: 15 and 30 mg/kg daily oral, 12 weeks.

`COC1[C@@H](OP(=O)(OC[C@H]2O[C@@H](n3cnc4c(N)ncnc43)C[C@H]2O)SCOC(=O)OC(C)C)[C@@H](CO)O[C@H]1n1ccc(=O)[nH]c1=O` (some centres unmarked) [Formula (IIa)]: in series [1] (setting [5]), the “mortality during the study” value is given as “no mortality” and the “tolerability (gross observations, body weights, body temperatures, hematology, clinical chemistry)” value is “well-tolerated”. Besides, the “serum levels of ALT and AST during and following treatment” value in series [1] (both dose groups) is “essentially remained unchanged or declined slightly”. Moreover, the “serum SDH levels during administration” value in series [1] (especially initial 4-8 weeks, more pronounced in the high dose group) is on record as “trend towards elevated”. Also, the “activation of the RIG-I/NOD2 pathway (liver transcript levels of RIG-I, NOD2, TMEM173, IRF3)” value in series [2] (15 or 30 mg/kg, n=3 each) is listed as “long-lasting activation”. In addition, the “CXCL10 expression in liver” value in series [2] (both dose groups, liver) is on record as “significantly induced”. Moreover, the “mRNA expression of type I IFNs (IFN-α, IFN-β) and ISGs (OAS1, ISG15) in blood versus pretreatment” value in series [2] (high dose 30 mg/kg, blood) is on record as “significant induction”. In series [2] (high dose group, liver), the “expression of IFN-β, IL-6 and OAS1 in liver versus pretreatment” value is “significantly increased expression”. In addition, the “expression of IL-6 and CXCL10 in blood versus pretreatment” value in series [2] (low and high doses, blood) was “significantly induced”. The “expression of IFN-α in liver versus pretreatment” value in series [2] (low dose group, liver) is “significantly induced”. The “efficacy against cells infected with wild type and resistant HBV strains (in vitro activity, FIG. 31)” value in series [3] was “efficacious against cells infected with all the HBV strains tested”. The “HBV DNA levels” value in series [4] is given as “significant reduction”. Moreover, the “secreted HBsAg and HBV e antigen (HBeAg)” value in series [4] (similar to IFN-α treatment) is “declines”. Further, the “antiviral activity against RNA viruses including HCV, Norovirus and RSV” value with HCV, Norovirus and RSV is “potent antiviral activity”.
